2 compounds from patent US12146183B2, “Compound and a method for identifying a protein using said compound” (CITY UNIVERSITY OF HONG KONG, priority 2020, dated 2024) can be followed below.

Common to all, as to assay type: biochemical
Test [1] deals with T1, Sirt2 (Homo sapiens, UniProt Q8IXJ6).
T1 construct: made in house
T1 sequence (Q8IXJ6 1-389): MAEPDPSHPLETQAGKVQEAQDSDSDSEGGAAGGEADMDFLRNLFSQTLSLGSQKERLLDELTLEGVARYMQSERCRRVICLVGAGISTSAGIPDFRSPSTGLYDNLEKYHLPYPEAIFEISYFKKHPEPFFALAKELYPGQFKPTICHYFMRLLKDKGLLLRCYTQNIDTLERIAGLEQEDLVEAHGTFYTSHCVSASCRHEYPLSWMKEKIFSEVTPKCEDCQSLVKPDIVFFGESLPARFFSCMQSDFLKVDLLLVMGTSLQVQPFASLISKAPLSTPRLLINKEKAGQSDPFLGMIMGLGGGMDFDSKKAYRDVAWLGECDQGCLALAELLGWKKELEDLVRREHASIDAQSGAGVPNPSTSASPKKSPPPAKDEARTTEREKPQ
The test can be described thus: HPLC delipoylation assay of lipoylated peptides with Sirt2. The note with it: Sirt2 + NAD+, 37° C., monitored at 280 nm after 40 min. The procedure:
A total of 11 lipoylated peptides (KAlip-1 to KAlip-11) were synthesised. The peptide sequences were selected from proteins that have been reported as being lipoylated (PDH, KDH, BCKDH, and GCV) and non-lipoylated proteins (e.g., histone). The peptides were synthesized with a standard Fmoc solid phase synthesis approach and characterized by LC-MS. The delipoylation activity was then determined by an HPLC assay. Compared with non-putative peptides, putative lipoylated peptides appeared to be more efficiently hydrolyzed by Sirt2. For example, the delipoylated product of KAlip-1 (derived from histone) after 40 min was determined to be 59%, which is less than that of putative lipoylated substrates such as KAlip-5 and KAlip-6 (derived from PDH).
The lipoylated peptides KAlip-1 to -11 were incubated with sirtuin and cofactor NAD+ at 37° C. in 20 mM HEPES buffer (pH 8.0) containing 150 mM NaCl, 1 mM MgCl2, and 2.7 mM KCl. The reaction volume was set to 50 μL. At each specific reaction time point, the reaction mixtures were quenched by adding 250 μL of methanol. The reactions were vortexed and centrifuged. Supernatant was collected and then analysed by reverse phase HPLC. The new peak generated was collected for ESI-MS or MALDI-TOF-MS analysis directly.

In test [2] the target is T1, Sirt2. The test can be described thus: Steady-state kinetic study of lipoylated peptides with Sirt2 (HPLC). The note with it: relative to KAlip-1. The procedure:
The delipoylation activity of HDAC8 was further examined using KAlip-5 and KAlip-1. […] A more detailed assessment of the enzymatic delipoylation reaction was performed. Time-dependent experiments and steady-state kinetics studies were conducted of KAlip-1, 5, 8, and 10 with Sirt2 (Table 1).
To determine the values of kcat, and Km, purified Sirt2 with 400 μM NAD+ was incubated with different concentrations of lipoylated peptide (0-120 μM) in 20 mM HEPES buffer (pH 8.0) containing 150 mM NaCl, 1 mM MgCl2, and 2.7 mM KCl at 37° C. for 10 min (KAlip-1 and KAlip-10) or 5 min (KAlip-5 and KAlip-8). The reactions were quenched by adding 250 μL of methanol and then applied for HPLC analysis with a linear gradient of 5% to 85% B (acetonitrile) for 30 min. The generated delipoylated product was quantified based on the peak area monitored at 280 nm. The kcat, and Km, values were calculated by curve-fitting Vinitiai/[E] versus [S]. The experiments were conducted in duplicate.

Test [3] deals with T1, Sirt2. The test can be described thus: Fluorimeter delipoylation assay of probe KTlip with Sirt2. As for the experimental part:
The capacity of HDACs to recognize and remove the lipoyl group of KTlip was examined by a fluorimeter assay. KTlip was incubated with various HDACs at 37° C. in HEPES buffer (pH 8.0). The fluorescence of the enzymatic reactions was then measured accordingly. […] Further HPLC and MS analysis confirmed that the molecular weight of the newly generated peak corresponded to the expected tandem de-lipoylated/exchanged product. […] After enzymatic reaction with Sirt2, a shift of peak absorption from 380 nm to 480 nm was clearly observed. Through detailed kinetic study, the first-order rate constant of the reaction was determined to be 0.013 min-1. […]
The probe KTlip was incubated with sirtuin and NAD+ at 37° C. in 20 mM HEPES buffer (pH 8.0) containing 150 mM NaCl, 1 mM MgCl2, and 2.7 mM KCl. […] When the enzymatic reaction was complete, the reaction was applied for absorption and fluorescence measurement. The parameter set for absorbance measurement was as follows: UV-visible light, collection region: 300-550 nm. The parameter set for fluorescence measurements was as follows: λex=480 nm, slit width: 5 nm, collection region: 510-600 nm.
The rate constant was calculated by fitting the fluorescence data to the following equation: Fluorescence intensity=1−exp(−kt) Enzymatic Reaction with Lipoylated Peptides.

The next test deals with T2, Sirt1 (Homo sapiens, UniProt Q96EB6).
T2 construct: made in house
T2 sequence (Q96EB6 1-747): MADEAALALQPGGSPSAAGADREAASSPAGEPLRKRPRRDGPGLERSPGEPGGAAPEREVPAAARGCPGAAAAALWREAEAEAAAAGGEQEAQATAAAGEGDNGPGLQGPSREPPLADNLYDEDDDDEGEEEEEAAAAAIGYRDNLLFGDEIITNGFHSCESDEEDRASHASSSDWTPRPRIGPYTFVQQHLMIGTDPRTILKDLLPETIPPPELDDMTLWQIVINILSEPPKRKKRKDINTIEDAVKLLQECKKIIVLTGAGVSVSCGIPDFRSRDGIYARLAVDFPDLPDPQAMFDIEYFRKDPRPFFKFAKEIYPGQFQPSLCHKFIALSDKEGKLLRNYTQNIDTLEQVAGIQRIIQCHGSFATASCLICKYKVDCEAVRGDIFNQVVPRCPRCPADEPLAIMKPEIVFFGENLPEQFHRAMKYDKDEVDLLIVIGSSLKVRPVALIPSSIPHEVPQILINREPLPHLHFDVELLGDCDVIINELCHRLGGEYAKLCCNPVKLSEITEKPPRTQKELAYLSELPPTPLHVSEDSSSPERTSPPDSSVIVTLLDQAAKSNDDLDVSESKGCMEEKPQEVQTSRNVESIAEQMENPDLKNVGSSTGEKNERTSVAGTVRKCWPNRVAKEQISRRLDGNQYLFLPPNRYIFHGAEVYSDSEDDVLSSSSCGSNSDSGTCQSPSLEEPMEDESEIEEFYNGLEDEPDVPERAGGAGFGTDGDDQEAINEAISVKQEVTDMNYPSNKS
The test can be described thus: Fluorimeter delipoylation assay of probe KTlip with Sirt1. The settings on record: Sirt1, 37° C., HEPES buffer pH 8.0. As for the experimental part:
(§1) The capacity of HDACs to recognize and remove the lipoyl group of KTlip was examined by a fluorimeter assay. KTlip was incubated with various HDACs at 37° C. in HEPES buffer (pH 8.0). The fluorescence of the enzymatic reactions was then measured accordingly. […] Further HPLC and MS analysis confirmed that the molecular weight of the newly generated peak corresponded to the expected tandem de-lipoylated/exchanged product. […] After enzymatic reaction with Sirt2, a shift of peak absorption from 380 nm to 480 nm was clearly observed. Through detailed kinetic study, the first-order rate constant of the reaction was determined to be 0.013 min-1. The Km value of KTlip obtained from the fluorescent method matched well with that from the traditional HPLC method, underscoring that probe KTlip can serve as a useful tool for detecting enzymatic delipoylation activity.
(§2) The probe KTlip was incubated with sirtuin and NAD+ at 37° C. in 20 mM HEPES buffer (pH 8.0) containing 150 mM NaCl, 1 mM MgCl2, and 2.7 mM KCl. The enzymatic reaction volume was 50 μL. When the enzymatic reaction was complete, the reaction was applied for absorption and fluorescence measurement. The parameter set for absorbance measurement was as follows: UV-visible light, collection region: 300-550 nm. The parameter set for fluorescence measurements was as follows: λex=480 nm, slit width: 5 nm, collection region: 510-600 nm.

In a further test the target is T3, Sirt3 (Homo sapiens, UniProt Q9NTG7).
T3 construct: made in house
T3 sequence (Q9NTG7 1-399): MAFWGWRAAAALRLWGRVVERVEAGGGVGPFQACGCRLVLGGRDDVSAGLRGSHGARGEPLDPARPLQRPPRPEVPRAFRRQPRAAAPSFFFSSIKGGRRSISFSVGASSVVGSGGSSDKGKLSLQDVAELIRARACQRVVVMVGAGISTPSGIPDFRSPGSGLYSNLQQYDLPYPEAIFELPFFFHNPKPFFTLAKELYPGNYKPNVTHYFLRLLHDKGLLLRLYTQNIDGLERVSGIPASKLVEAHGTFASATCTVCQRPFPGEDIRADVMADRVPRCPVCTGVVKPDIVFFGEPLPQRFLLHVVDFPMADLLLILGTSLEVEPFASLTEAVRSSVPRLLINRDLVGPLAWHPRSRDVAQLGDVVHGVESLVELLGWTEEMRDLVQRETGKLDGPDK
The test can be described thus: Fluorimeter delipoylation assay of probe KTlip with Sirt3. The settings on record: Sirt3, 37° C., HEPES buffer pH 8.0. As for the experimental part: as §1, §2

For the next test, the target named is T4, Sirt5 (Homo sapiens, UniProt Q9NXA8).
T4 construct: made in house
T4 sequence (Q9NXA8 37-310): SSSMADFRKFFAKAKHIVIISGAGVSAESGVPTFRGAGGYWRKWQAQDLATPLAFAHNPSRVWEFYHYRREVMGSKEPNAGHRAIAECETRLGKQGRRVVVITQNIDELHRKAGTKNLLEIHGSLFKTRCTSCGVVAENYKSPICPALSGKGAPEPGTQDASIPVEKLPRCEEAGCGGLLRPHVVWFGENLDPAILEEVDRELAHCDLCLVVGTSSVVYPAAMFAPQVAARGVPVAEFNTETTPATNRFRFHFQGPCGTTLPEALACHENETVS
The test can be described thus: Fluorimeter delipoylation assay of probe KTlip with Sirt5. The settings on record: Sirt5, 37° C., HEPES buffer pH 8.0. As for the experimental part: as §1, §2

In another test the target is T5, Sirt6 (Homo sapiens, UniProt Q8N6T7).
T5 construct: made in house
T5 sequence (Q8N6T7 whole entry, species assumed): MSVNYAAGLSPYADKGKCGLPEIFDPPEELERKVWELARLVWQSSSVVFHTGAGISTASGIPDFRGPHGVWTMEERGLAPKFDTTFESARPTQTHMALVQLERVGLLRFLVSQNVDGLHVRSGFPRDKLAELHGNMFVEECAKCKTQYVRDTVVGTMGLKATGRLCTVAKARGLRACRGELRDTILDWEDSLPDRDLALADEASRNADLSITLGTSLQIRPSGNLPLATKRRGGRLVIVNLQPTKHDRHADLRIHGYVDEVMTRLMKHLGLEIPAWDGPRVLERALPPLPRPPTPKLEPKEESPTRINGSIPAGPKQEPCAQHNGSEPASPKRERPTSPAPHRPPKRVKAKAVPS
In words: Fluorimeter delipoylation assay of probe KTlip with Sirt6. The note with it: Sirt6, 37° C., HEPES buffer pH 8.0. As for the experimental part: as §1, §2

A further test has as its target T6, HDAC8 (Homo sapiens, UniProt Q9BY41).
T6 sequence (Q9BY41 1-377): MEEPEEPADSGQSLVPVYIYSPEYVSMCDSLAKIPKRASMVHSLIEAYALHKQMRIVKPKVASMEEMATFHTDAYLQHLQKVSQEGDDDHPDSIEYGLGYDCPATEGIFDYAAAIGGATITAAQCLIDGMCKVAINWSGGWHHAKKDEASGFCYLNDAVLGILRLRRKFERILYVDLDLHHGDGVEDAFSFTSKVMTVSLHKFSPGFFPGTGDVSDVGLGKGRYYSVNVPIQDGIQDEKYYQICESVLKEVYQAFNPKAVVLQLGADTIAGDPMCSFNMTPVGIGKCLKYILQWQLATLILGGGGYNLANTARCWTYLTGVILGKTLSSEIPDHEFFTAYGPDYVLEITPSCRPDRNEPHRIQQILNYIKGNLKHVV
The test can be described thus: Fluorimeter and HPLC/MS delipoylation assay of probe KTlip with HDAC8. The procedure: as §1, §2

For ALESVK(lip)AASEWW [KAlip-10], the “Delipoylation product (HPLC yield of delipoylated product)” value at Sirt2 [1] is given as 71%. Moreover, the “Catalytic efficiency of Sirt2 compared with nonputative H3K9 lipoyl peptide (KAlip-1)” value at Sirt2 [2] was “slightly higher”.
Regarding `CC(C)(C)OC(=O)N[C@@H](CCCCNC(=O)CCCCC1CCSS1)C(=O)NCCOCCOc1ccc([N+](=O)[O-])c2nonc12` (stereo partly shown) [KTlip], the Fluorescence increase on Sirt2 [3] (Sirt2, 37° C., HEPES buffer pH 8.0) is reported as 60 fold; on Sirt3, “did not show a noticeable fluorescence increase”; on Sirt5, “did not show a noticeable fluorescence increase”; on Sirt6, “did not show a noticeable fluorescence increase”; at HDAC8 (HDAC8, 37° C., HEPES buffer pH 8.0), “did not show a noticeable fluorescence increase”. For the same compound, the “First-order rate constant of the reaction” value at Sirt2 [3] (Sirt2, fluorescence fit) is 0.013 min⁻¹. Moreover, the Fluorescence signal result on Sirt1 was “much lower fluorescence signal”. In addition, the “De-lipoylated product (HPLC and MS analysis)” value at HDAC8 (HDAC8 enzymatic reaction conditions) is recorded as “No de-lipoylated product was observed”.
